Measured values published in US9617602B2, “Methods and compositions for determining resistance to androgen receptor therapy” (Aragon Pharmaceuticals, Inc., priority 2012, dated 2017).

Assays:
Type in all cases: cell-based, human
LNCaP/AR(cs) cells = experiment: Endogenous gene transcriptional assay (real-time PCR of androgen responsive genes);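 on ORM1 expression, agonist transcription: LNCaP/AR(cs) cells without added R1881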;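 on PLD1 expression, agonist transcription: LNCaP/AR(cs) cells without added R1881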;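 on PSA expression, agonist transcription: LNCaP/AR(cs) cells without added R1881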;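 on SLUG expression, agonist transcription: LNCaP/AR(cs) cells without added R1881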;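 on TMPRSS2 expression, agonist transcription: LNCaP/AR(cs) cells without added R1881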
[1] = tested on: Class 2 resistant cell lines; experiment: as above
Description: Total RNA was isolated using the Aurum™ total RNA isolation kit (BIO-RAD, Hercules, Calif.). RNA (1 μg) was reverse transcribed using the iScript cDNA synthesis kit (BIO-RAD, Hercules, Calif.) to produce cDNA. Real-time PCR was performed using the Applied Biosystems 7900HT instrument and SYBR Green PCR Master Mix (Applied Biosystems, Foster City, Calif.). PCR reactions were performed in 6 μL according to the manufacturer's protocol and a thermocycle protocol of 95° C. for 10 minutes followed by 40 cycles of 95° C. for 15 seconds and 58° C. for 1 minute. Androgen responsive gene (PSA, SLUG, TMPRSS2, STEAP4, FKBP5, ORM1, NOV, FASN, NKX3.1, AMIGO2, BDNF, CAMK2N1, HPGD, NCAPD3, PLD1) expression was normalized to GAPDH expression and expressed relative to vehicle treatment of the parental cell line.

LNCaP cells = experiment: Transcriptional reporter assay (probasin-luciferase)
[2] = Table 4A, 1 nM R1881 or 30 μM compound, vehicle=1.00

With `CNC(=O)c1ccc(N2C(=S)N(c3ccc(C#N)c(C(F)(F)F)c3)C(=O)C2(C)C)cc1F` [Enzalutamide, enzalutamide] the ORM1 gene expression (LNCaP/AR(cs) cells; [2]) was 3.58, the PLD1 gene expression (LNCaP/AR(cs) cells; [2]) was 0.65 and the PSA gene expression (LNCaP/AR(cs) cells; [2]) was 2.69. For the same compound, the SLUG gene expression (LNCaP/AR(cs) cells; [2]) was 2.06, the TMPRSS2 gene expression (LNCaP/AR(cs) cells; [2]) was 2.36 and the “AMIGO2 expression, agonist transcription” value (LNCaP/AR(cs) cells; −R1881, 0.3 μM) was 0.68. The “CAM2KN1 expression, agonist transcription” value (“CAM2KN1 expression” for short) (LNCaP/AR(cs) cells; −R1881, 0.3 μM) was 0.80, the “FASN expression, agonist transcription” value (LNCaP/AR(cs) cells; −R1881, 0.3 μM) was 0.47 and the “FKBP5 expression, agonist transcription” value (LNCaP/AR(cs) cells; −R1881, 0.3 μM) was 0.91. For the same compound, the “HPGD expression, agonist transcription” value (LNCaP/AR(cs) cells; −R1881, 0.3 μM) was 0.74, the “NCAPD3 expression, agonist transcription” value (LNCaP/AR(cs) cells; −R1881, 0.3 μM) was 0.66 and the “NKX3.1 expression, agonist transcription” value (LNCaP/AR(cs) cells; −R1881, 0.3 μM) was 0.71. The “NOV expression, agonist transcription” value (LNCaP/AR(cs) cells; −R1881, 0.3 μM) was 1.12, the “ORM1 expression, agonist transcription” value (LNCaP/AR(cs) cells; −R1881, 0.3 μM) was 0.92 and the “PLD1 expression, agonist transcription” value (LNCaP/AR(cs) cells; −R1881, 0.3 μM) was 0.77. For the same compound, the “PSA expression, agonist transcription” value (LNCaP/AR(cs) cells; −R1881, 0.3 μM) was 0.42, the “SLUG expression, agonist transcription” value (LNCaP/AR(cs) cells; −R1881, 0.3 μM) was 0.53 and the “STEAP4 expression, agonist transcription” value (LNCaP/AR(cs) cells; −R1881, 0.3 μM) was 0.75. The “TMPRSS2 expression, agonist transcription” value (“TMPRSS2 expression” for short) (LNCaP/AR(cs) cells; −R1881, 0.3 μM) was 0.75, the “AMIGO2 expression, agonist transcription” value (LNCaP/AR(cs) cells; −R1881, 1 μM) was 0.61 and the “BDNF expression, agonist transcription” value (LNCaP/AR(cs) cells; −R1881, 1 μM) was 0.92. The “CAM2KN1 expression” value (LNCaP/AR(cs) cells; −R1881, 1 μM) was 0.70, the “FASN expression, agonist transcription” value (LNCaP/AR(cs) cells; −R1881, 1 μM) was 0.32 and the “FKBP5 expression, agonist transcription” value (LNCaP/AR(cs) cells; −R1881, 1 μM) was 0.62. For the same compound, the “HPGD expression, agonist transcription” value (LNCaP/AR(cs) cells; −R1881, 1 μM) was 0.57, the “NCAPD3 expression, agonist transcription” value (LNCaP/AR(cs) cells; −R1881, 1 μM) was 0.57 and the “NKX3.1 expression, agonist transcription” value (LNCaP/AR(cs) cells; −R1881, 1 μM) was 0.52. For the same compound, the “NOV expression, agonist transcription” value (LNCaP/AR(cs) cells; −R1881, 1 μM) was 0.91, the “ORM1 expression, agonist transcription” value (LNCaP/AR(cs) cells; −R1881, 1 μM) was 0.90 and the “PLD1 expression, agonist transcription” value (LNCaP/AR(cs) cells; −R1881, 1 μM) was 0.62. For the same compound, the “PSA expression, agonist transcription” value (LNCaP/AR(cs) cells; −R1881, 1 μM) was 0.32, the “SLUG expression, agonist transcription” value (LNCaP/AR(cs) cells; −R1881, 1 μM) was 0.55 and the “STEAP4 expression, agonist transcription” value (LNCaP/AR(cs) cells; −R1881, 1 μM) was 0.73. For the same compound, the “TMPRSS2 expression” value (LNCaP/AR(cs) cells; −R1881, 1 μM) was 0.53, the “AMIGO2 expression, agonist transcription” value (LNCaP/AR(cs) cells; −R1881, 3 μM) was 0.62 and the “BDNF expression, agonist transcription” value (LNCaP/AR(cs) cells; −R1881, 3 μM) was 0.88. The “CAM2KN1 expression” value (LNCaP/AR(cs) cells; −R1881, 3 μM) was 0.71, the “FASN expression, agonist transcription” value (LNCaP/AR(cs) cells; −R1881, 3 μM) was 0.29 and the “FKBP5 expression, agonist transcription” value (LNCaP/AR(cs) cells; −R1881, 3 μM) was 0.75. The “HPGD expression, agonist transcription” value (LNCaP/AR(cs) cells; −R1881, 3 μM) was 0.61, the “NCAPD3 expression, agonist transcription” value (LNCaP/AR(cs) cells; −R1881, 3 μM) was 0.47 and the “NKX3.1 expression, agonist transcription” value (LNCaP/AR(cs) cells; −R1881, 3 μM) was 0.51. For the same compound, the “NOV expression, agonist transcription” value (LNCaP/AR(cs) cells; −R1881, 3 μM) was 0.80, the “ORM1 expression, agonist transcription” value (LNCaP/AR(cs) cells; −R1881, 3 μM) was 1.06 and the “PLD1 expression, agonist transcription” value (LNCaP/AR(cs) cells; −R1881, 3 μM) was 0.63. The “PSA expression, agonist transcription” value (LNCaP/AR(cs) cells; −R1881, 3 μM) was 0.38, the “SLUG expression, agonist transcription” value (LNCaP/AR(cs) cells; −R1881, 3 μM) was 0.31 and the “STEAP4 expression, agonist transcription” value (LNCaP/AR(cs) cells; −R1881, 3 μM) was 0.52. For the same compound, the “TMPRSS2 expression” value (LNCaP/AR(cs) cells; −R1881, 3 μM) was 0.63, the “AMIGO2 expression, agonist transcription” value (LNCaP/AR(cs) cells; −R1881, 10 μM) was 0.66 and the “BDNF expression, agonist transcription” value (LNCaP/AR(cs) cells; −R1881, 10 μM) was 0.95. For the same compound, the “CAM2KN1 expression” value (LNCaP/AR(cs) cells; −R1881, 10 μM) was 0.64, the “FASN expression, agonist transcription” value (LNCaP/AR(cs) cells; −R1881, 10 μM) was 0.31 and the “FKBP5 expression, agonist transcription” value (LNCaP/AR(cs) cells; −R1881, 10 μM) was 0.61. The “HPGD expression, agonist transcription” value (LNCaP/AR(cs) cells; −R1881, 10 μM) was 0.63, the “NCAPD3 expression, agonist transcription” value (LNCaP/AR(cs) cells; −R1881, 10 μM) was 0.56 and the “NKX3.1 expression, agonist transcription” value (LNCaP/AR(cs) cells; −R1881, 10 μM) was 0.86. The “ORM1 expression, agonist transcription” value (LNCaP/AR(cs) cells; −R1881, 10 μM) was 0.71, the “PLD1 expression, agonist transcription” value (LNCaP/AR(cs) cells; −R1881, 10 μM) was 0.56 and the “PSA expression, agonist transcription” value (LNCaP/AR(cs) cells; −R1881, 10 μM) was 0.74. For the same compound, the “SLUG expression, agonist transcription” value (LNCaP/AR(cs) cells; −R1881, 10 μM) was 0.51, the “STEAP4 expression, agonist transcription” value (LNCaP/AR(cs) cells; −R1881, 10 μM) was 1.16 and the “TMPRSS2 expression” value (LNCaP/AR(cs) cells; −R1881, 10 μM) was 0.89. For the same compound, the “CAM2KN1 expression” value (LNCaP/AR(cs) cells; −R1881, 30 μM) was 0.64, the “FKBP5 expression, agonist transcription” value (LNCaP/AR(cs) cells; −R1881, 30 μM) was 0.85 and the “NCAPD3 expression, agonist transcription” value (LNCaP/AR(cs) cells; −R1881, 30 μM) was 0.79. For the same compound, the “NKX3.1 expression, agonist transcription” value (LNCaP/AR(cs) cells; −R1881, 30 μM) was 1.63, the “ORM1 expression, agonist transcription” value (LNCaP/AR(cs) cells; −R1881, 30 μM) was 2.02 and the “PLD1 expression, agonist transcription” value (LNCaP/AR(cs) cells; −R1881, 30 μM) was 0.56. The “PSA expression, agonist transcription” value (LNCaP/AR(cs) cells; −R1881, 30 μM) was 1.60, the “SLUG expression, agonist transcription” value (LNCaP/AR(cs) cells; −R1881, 30 μM) was 0.91 and the “TMPRSS2 expression” value (LNCaP/AR(cs) cells; −R1881, 30 μM) was 1.45. For the same compound, the “Transcriptional activity on endogenous androgen-responsive genes, Class 2 resistant cell lines” value [1] was “robust transcriptional agonist activity”, the “Agonist Transcriptional Reporter Assay (% Max Activity)” value (LNCaP cells; [Antagonists] = 50 μM) was “+ (‘+’ = <5)” and the “Antagonist Transcriptional Reporter Assay (% Max Activity)” value (LNCaP cells; [Antagonists] = 50 μM in presence of R1881) was “+ (‘+’ = <5)”.
